According to patent publication US5948814A, “Genistein for the treatment of cystic fibrosis” (priority 1998, dated 1999):
Where two headings read alike, the source gives them in different places.

Tests used:
ΔF508-CFTR = ΔF508-CFTR (Homo sapiens, UniProt P13569, DEL508-508); experiment: Forskolin-dependent I- efflux, NIH/3T3-ΔF508 cells
Experimental: FIG. 1 is a graph representing the dose-responses relationship for forskolin-dependent I^- efflux. Peak rates of I^- efflux in the presence (closed symbols) or absence (open symbols) of 50 μM genistein were obtained with NIH/3T3-cystic fibrosis transmembrane conductance regulator (NIH/3T3-CFTR) (circles) and NTH/3T3-Δphenylalanine 508 (ΔF508) cells (triangles). NIH/3T3-CFTR cells are cultured at 37° C. NIH/3T3-Δ508 cells are cultured at 27° C. for 3 days prior to assay. Data are mean values±SE (n>5). Lines were fit by nonlinear least squares.
FIG. 2 is a bar graph showing the effects of stimulation of ΔF508-CFTR by forskolin and genistein. Peak rates of I^- efflux were measured with NIH/3T3-ΔF508cells that were cultured at 37° C. (open bars) or at 27° C. for 3 days prior to assay (filled bars). I^- efflux was assayed without added agonist as a control and with 1 μM forskolin (fsk), 50 μM genistein (gen), or 1 μM forskolin plus 50 μM genistein (fsk+gen). Error bars are SE for n>7.
Cell culture: NIH/3T3-CFTR, NIH/3T3-ΔF508, and NIH/3T3 mock cells (generous gifts from Dr. Richard Mulligan of Children's Hospital and Medical Center, Harvard Medical School) were grown as described [Bradbury et al., 1992] at 37° C. and 5% CO2 in Dulbecco's modified Eagle's medium-H21 supplemented with 10% new-born calf serum, 4 mM glutamine, 25 mM glucose, 100 μg/ml penicillin, 100 μg/ml streptomycin, and 50 μg/ml gentamicin. Cells were maintained in T75 flasks, passaged at 90-95% confluency, and split one to four. For measurements of I^- efflux and in vivo phosphorylation, cells were seeded onto 35-mm dishes at […]. For patch-clamp experiments, cells were grown on coverglass chips in 35-mm culture dishes. Media were replaced 24 hours after plating and thereafter every 48 hours. In all cases, media were changed on the day before I^- efflux studies, NIH/3T3-ΔF508 cells were transferred to 27° C. three days before use, and 1 day prior to study, media were supplemented with 5 mM butyrate. For patch-clamp studies, where a constant level of functional ΔF508-CFTR was not essential, NIH/3T3-ΔF508 cells were cultured at 27° C. for 2-6 days before use. Calu-3 cells were grown and maintained as described by Hunter [1995].
I^- efflux: I^- efflux was measured as described previously [Reenstra et al., 1996]. Briefly, cells were incubated for 30 minutes with 37° C. I^- efflux buffer [(in mM) 141 NaCl, 4 KCl, 1 KH2 PO4, 0.9 MgCl2, 1.7 CaCl2. 10 N-2hydroxyethylpiperazine-N'-2-ethanesulfonic acid (HEPES), 25 glucose pH 7.4] containing 5 μCi/ml carrier-free ^125 I^- (sodium salt). Extracellular ^125 I^- was removed by washing four times with efflux buffer, and the rate of loss of intracellular ^125 I^- was determined by replacing the bathing solution with 37° C. efflux buffer every 60 seconds for 12 minutes. Time-dependent rates of ^125 I^- efflux are calculated from R=ln(^125 I^-t1 /^125 I^-t2)/(t1-t2), where ^125 I^-t is the intracellular ^125 I^- at time t and t1 and t2 are successive time points. Dose-response curves were obtained from peak rates of 125I^- efflux by nonlinear least squares fitting to R=[Ro +Rmx ·([fsk]/K1/2)]/[1+([fsk]/K1/2)], where Ro and Rmx are the rates of ^125 I efflux at zero and infinite concentration of forskolin (fsk), and K1/2 is the concentration of agonist that gives a half-maximal change.
To investigate effects of genistein on CFTR activity, the rates of I^- efflux were measured from stably transfected NIH/3T3 cells expressing wt- and ΔF508-CFTR (NIH/33-CFTR and NIH/3T3-ΔF508 cells, respectively). […] To increase ΔF508-CFTR channel activity, NIH/3T3-ΔF508 cells were cultured at 27° C. for 3 days [Denning et al., 1992].

wt-CFTR = wt-CFTR (Homo sapiens, UniProt P13569); type: cell-based; set-up: expressed in transfected cells
Sequence of wt-CFTR (P13569 whole entry): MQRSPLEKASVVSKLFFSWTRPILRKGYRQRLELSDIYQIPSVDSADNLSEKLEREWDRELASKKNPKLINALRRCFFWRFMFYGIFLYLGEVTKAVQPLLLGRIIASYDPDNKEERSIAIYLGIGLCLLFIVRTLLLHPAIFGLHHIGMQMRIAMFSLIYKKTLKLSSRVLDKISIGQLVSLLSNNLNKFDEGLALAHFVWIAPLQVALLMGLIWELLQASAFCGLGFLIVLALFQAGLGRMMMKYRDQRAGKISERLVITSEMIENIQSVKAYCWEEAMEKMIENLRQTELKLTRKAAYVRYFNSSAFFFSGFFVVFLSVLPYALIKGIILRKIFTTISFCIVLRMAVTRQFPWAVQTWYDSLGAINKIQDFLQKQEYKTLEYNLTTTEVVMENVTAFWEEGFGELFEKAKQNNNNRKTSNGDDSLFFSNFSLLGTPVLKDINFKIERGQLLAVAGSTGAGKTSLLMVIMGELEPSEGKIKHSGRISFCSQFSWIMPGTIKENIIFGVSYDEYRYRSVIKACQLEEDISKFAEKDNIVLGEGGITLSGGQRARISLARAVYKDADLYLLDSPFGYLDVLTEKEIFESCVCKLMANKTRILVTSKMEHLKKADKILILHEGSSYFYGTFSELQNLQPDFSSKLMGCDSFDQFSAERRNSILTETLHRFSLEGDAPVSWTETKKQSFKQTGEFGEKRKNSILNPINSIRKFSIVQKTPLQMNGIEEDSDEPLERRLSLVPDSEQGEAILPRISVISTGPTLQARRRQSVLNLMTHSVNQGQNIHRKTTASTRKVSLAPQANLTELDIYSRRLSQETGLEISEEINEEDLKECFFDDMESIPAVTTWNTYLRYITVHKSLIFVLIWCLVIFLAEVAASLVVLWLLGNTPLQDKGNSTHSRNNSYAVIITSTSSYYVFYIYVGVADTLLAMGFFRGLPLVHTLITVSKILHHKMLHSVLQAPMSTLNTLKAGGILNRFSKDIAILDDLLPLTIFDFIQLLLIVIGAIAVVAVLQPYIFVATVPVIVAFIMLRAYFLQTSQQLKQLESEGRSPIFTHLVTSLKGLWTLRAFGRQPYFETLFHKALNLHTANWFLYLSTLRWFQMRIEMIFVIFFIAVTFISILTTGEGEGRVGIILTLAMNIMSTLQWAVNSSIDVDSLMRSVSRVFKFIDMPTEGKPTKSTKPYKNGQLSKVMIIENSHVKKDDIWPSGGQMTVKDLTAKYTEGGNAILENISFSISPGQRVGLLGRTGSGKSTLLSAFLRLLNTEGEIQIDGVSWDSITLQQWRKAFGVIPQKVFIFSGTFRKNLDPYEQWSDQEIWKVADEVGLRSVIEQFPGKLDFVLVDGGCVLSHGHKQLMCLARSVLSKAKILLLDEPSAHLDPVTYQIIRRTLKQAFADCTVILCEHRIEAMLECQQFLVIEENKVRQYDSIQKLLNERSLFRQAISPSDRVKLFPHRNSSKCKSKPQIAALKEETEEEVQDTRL
Experimental: FIGS. 4A and B are graphs showing the variance analysis of macroscopic currents for wt- and ΔF508-CFTR wherein (A) is a plot of variance as a function of mean-current amplitude for NIH/3T3-CFTR(.circle-solid.) and NIH/3T3-ΔF508 (.smallcircle.) cells stimulated with 10 μM forskolin plus 50 μM genistein. (B) is a plot of variance as a function of mean-current amplitude for NIH/3T3-CFTR (.circle-solid.) and NIH/3T3-ΔF508 (.smallcircle.) cells stimulated with 10 μM forskolin. Lines are least square regressions.
Electrophysiology: CFTR channel currents were recorded at room temperature (~22° C.) with a patch-clamp amplifier (EPC-9, Heka Electronic), filtered at 100 Hz with a built-in three-pole Bessel filter, and stored on videotapes. Data were subsequently refiltered at 25 Hz with an eight-pole Bessel filter (Frequency Device, Havervill, Mass.) and captured onto a hard disk at a sampling rate of 50 Hz. […] Patch-clamp electrodes were made from Corning 7052 glass capillaries (Warner Instrument, Hammed, Conn.). The pipette resistance was usually 3-5 M.OMEGA., and the seal resistance was >20 G.OMEGA.. […]
Statistics: Mean currents and variance were estimated with Igor (Wavemetrics, Lake Oswego, Oreg.). […] Po was calculated from patches containing a single channel by dividing the open channel current amplitude with the mean-current amplitude. […] Calculated values are presented as means±SE. […]

Sequence of ΔF508-CFTR (P13569 with tags, fused parts or gaps DEL508-508): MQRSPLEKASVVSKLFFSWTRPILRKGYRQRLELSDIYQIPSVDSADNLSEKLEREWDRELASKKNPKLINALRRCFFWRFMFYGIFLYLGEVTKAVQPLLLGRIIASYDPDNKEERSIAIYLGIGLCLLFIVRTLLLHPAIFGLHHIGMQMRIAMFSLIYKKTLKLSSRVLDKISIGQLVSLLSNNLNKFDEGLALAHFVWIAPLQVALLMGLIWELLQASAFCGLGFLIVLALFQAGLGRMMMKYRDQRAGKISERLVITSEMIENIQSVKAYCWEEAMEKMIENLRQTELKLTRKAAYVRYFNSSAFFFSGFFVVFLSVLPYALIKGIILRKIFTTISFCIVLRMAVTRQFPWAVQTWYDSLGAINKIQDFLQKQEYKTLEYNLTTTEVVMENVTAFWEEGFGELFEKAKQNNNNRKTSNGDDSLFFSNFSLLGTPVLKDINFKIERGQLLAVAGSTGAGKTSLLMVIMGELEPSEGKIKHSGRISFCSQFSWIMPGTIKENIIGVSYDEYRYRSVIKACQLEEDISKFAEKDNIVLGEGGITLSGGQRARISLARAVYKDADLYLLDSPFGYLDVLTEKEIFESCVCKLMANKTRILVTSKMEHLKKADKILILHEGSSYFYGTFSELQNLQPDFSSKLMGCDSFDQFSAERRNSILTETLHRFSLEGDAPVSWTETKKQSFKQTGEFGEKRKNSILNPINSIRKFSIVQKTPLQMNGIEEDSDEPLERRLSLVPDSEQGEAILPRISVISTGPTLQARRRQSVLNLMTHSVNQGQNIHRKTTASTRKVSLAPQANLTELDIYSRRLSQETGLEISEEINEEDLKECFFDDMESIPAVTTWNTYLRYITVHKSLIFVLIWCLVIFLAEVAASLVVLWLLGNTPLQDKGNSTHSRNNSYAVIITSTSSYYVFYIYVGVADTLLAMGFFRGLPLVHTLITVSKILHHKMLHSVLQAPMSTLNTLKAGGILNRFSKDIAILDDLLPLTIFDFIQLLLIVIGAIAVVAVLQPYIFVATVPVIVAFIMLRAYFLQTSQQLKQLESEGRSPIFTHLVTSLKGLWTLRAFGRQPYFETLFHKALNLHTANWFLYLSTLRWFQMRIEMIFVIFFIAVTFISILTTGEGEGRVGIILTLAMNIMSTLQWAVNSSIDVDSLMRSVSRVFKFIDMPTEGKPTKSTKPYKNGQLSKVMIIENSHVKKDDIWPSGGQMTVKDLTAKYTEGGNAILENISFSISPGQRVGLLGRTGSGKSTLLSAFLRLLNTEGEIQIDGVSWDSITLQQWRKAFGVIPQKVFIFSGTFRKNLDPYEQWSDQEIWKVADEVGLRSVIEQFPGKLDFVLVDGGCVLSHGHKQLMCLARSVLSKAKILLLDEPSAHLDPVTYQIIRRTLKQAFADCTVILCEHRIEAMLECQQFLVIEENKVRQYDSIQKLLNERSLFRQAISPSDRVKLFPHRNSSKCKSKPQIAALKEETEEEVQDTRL

SMILES: O=c1c(-c2ccc(O)cc2)coc2cc(O)cc(O)c12 [Genistein, 4',5,7-trihydroxyisoflavone]
- increase of the maximal forskolin-dependent I- efflux response by genistein (ΔF508-CFTR; 50 μM genistein, cells cultured at 27° C. for 3 days): 3.7±0.4 fold
- slope of variance vs mean current (proportional to 1-Po) (wt-CFTR; 10 μM forskolin and 50 μM genistein): 0.17±0.02 pA

SMILES: C=C[C@@]1(C)CC(=O)[C@]2(O)[C@@]3(C)[C@@H](O)CCC(C)(C)[C@@H]3[C@H](O)[C@H](OC(C)=O)[C@@]2(C)O1 [forskolin]
- EC50 (ΔF508-CFTR): 670 ± 260 nM
- stimulation of mutant ΔF508-CFTR (ΔF508-CFTR): had little affect on mutant ΔF508-CFTR
- maximal fold induction (ΔF508-CFTR; mouse, read-out: maximal forskolin-dependent increase in I- efflux): 1.65 ± 0.08
- EC50 (ΔF508-CFTR; read-out: K1/2 of forskolin for I- efflux in presence of genistein, with 50 μM genistein, cells cultured at 27° C. for 3 days): 16 ± 5 nM
- activation at 10 µM (ΔF508-CFTR; read-out: increase of I- efflux): < 15%
- slope of variance vs mean current (proportional to 1-Po) (wt-CFTR; 10 μM forskolin): 0.27±0.02 pA
